In article PMC11345828 (Journal of Medicinal Chemistry, 2024):
Marks after values point to notes of the source that are not given here.

Assay: Mouse IV PK
Conditions: for AUC/Dose: dose normalized; for clearance: mouse, plasma, iv

| Structure (SMILES) | AUC/Dose (mouse IV, dosed at 20 mg/kg) | clearance (20 mg/kg) | clearance (25 mg/kg) | CL (mouse IV, dosed at 25 mg/kg) | AUC/Dose (mouse IV, dosed at 25 mg/kg) |
| --- | --- | --- | --- | --- | --- |
| CCOc1c(O[C@H]2CCOC2)cc(N2C[C@@H](C)n3c(c(CCCOc4cc(C)c(Cl)c(C)c4)c4ccc(Cl)c(-c5c(C)nc(C)nc5C)c43)C2=O)c2c1cc(C(=O)O)n2C [Compound 31, 7-((R)-7-Chloro-10-(3-(4-chloro-3,5-dimethylphenoxy)propyl)-4-methyl-1-oxo-6-(2,4,6-trimethylpyrimidin-5-yl)-3,4-dihydropyrazino[1,2-a]indol-2(1H)-yl)-4-ethoxy-1-methyl-5-(((S)-tetrahydrofuran-3-yl)oxy)-1H-indole-2-carboxylic Acid] | 2465^d nM*h/mpk | 8.7 mL/min/kg | 8.7 mL/min/kg |  |  |
| COc1c(OC[C@H]2CCCO2)cc(N2C[C@@H](C)n3c(c(CCCOc4cc(C)c(Cl)c(C)c4)c4ccc(Cl)c(-c5c(C)ncnc5C)c43)C2=O)c2c1cc(C(=O)O)n2C [Compound 24, 7-((R)-7-Chloro-10-(3-(4-chloro-3,5-dimethylphenoxy)propyl)-6-(4,6-dimethylpyrimidin-5-yl)-4-methyl-1-oxo-3,4-dihydropyrazino[1,2-a]indol-2(1H)-yl)-4-methoxy-1-methyl-5-(((R)-tetrahydrofuran-2-yl)methoxy)-1H-indole-2-carboxylic Acid] |  |  | 15 mL/min/kg | 15 mL/min/kg | 1476^c nM*h/mpk |
| COc1c(O[C@@H]2CCOC2)cc(N2C[C@@H](C)n3c(c(CCCOc4cc(C)c(Cl)c(C)c4)c4ccc(Cl)c(-c5c(C)nc(C)nc5C)c43)C2=O)c2c1cc(C(=O)O)n2C [Compound 30, 7-((R)-7-Chloro-10-(3-(4-chloro-3,5-dimethylphenoxy)propyl)-4-methyl-1-oxo-6-(2,4,6-trimethylpyrimidin-5-yl)-3,4-dihydropyrazino[1,2-a]indol-2(1H)-yl)-4-methoxy-1-methyl-5-(((R)-tetrahydrofuran-3-yl)oxy)-1H-indole-2-carboxylic Acid] | 1425^d nM*h/mpk | 13 mL/min/kg | 13 mL/min/kg |  |  |
| COc1c(OCC2CCOCC2)cc(N2C[C@@H](C)n3c(c(CCCOc4cc(C)c(Cl)c(C)c4)c4ccc(Cl)c(-c5c(C)ncnc5C)c43)C2=O)c2c1cc(C(=O)O)n2C [Compound 22, (R)-7-(7-Chloro-10-(3-(4-chloro-3,5-dimethylphenoxy)propyl)-6-(4,6-dimethylpyrimidin-5-yl)-4-methyl-1-oxo-3,4-dihydropyrazino[1,2-a]indol-2(1H)-yl)-4-methoxy-1-methyl-5-((tetrahydro-2H-pyran-4-yl)methoxy)-1H-indole-2-carboxylic Acid] | 2830^d nM*h/mpk | 7 mL/min/kg | 7 mL/min/kg |  |  |
| COc1c(OC[C@H]2CCCO2)cc(N2C[C@@H](C)n3c(c(CCCOc4cc(C)c(Cl)c(C)c4)c4ccc(Cl)c(-c5c(C)nc(C)nc5C)c43)C2=O)c2c1cc(C(=O)O)n2C [Compound 28, 7-((R)-7-Chloro-10-(3-(4-chloro-3,5-dimethylphenoxy)propyl)-6-(2,4,6-trimethylpyrimidin-5-yl)-4-methyl-1-oxo-3,4-dihydropyrazino[1,2-a]indol-2(1H)-yl)-4-methoxy-1-methyl-5-(((R)-tetrahydrofuran-2-yl)methoxy)-1H-indole-2-carboxylic Acid] | 2510^d nM*h/mpk | 8.4 mL/min/kg | 8.4 mL/min/kg |  |  |
| CCOc1c(OCC2CCOCC2)cc(N2C[C@@H](C)n3c(c(CCCOc4cc(C)c(Cl)c(C)c4)c4ccc(Cl)c(-c5c(C)nc(C)nc5C)c43)C2=O)c2c1cc(C(=O)O)n2C [Compound 32, (R)-7-(7-Chloro-10-(3-(4-chloro-3,5-dimethylphenoxy)propyl)-4-methyl-1-oxo-6-(2,4,6-trimethylpyrimidin-5-yl)-3,4-dihydropyrazino[1,2-a]indol-2(1H)-yl)-4-ethoxy-1-methyl-5-((tetrahydro-2H-pyran-4-yl)methoxy)-1H-indole-2-carboxylic Acid] | 4930^d nM*h/mpk | 3.7 mL/min/kg | 3.7 mL/min/kg |  |  |
